14 compounds from PubChem BioAssay (NCI) can be followed below.

“And” between values parts separate entries of the source, which are not always exact repeats. Identical values can stand only once.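 Growth conditions: 96-well plates. Treatment: test compound, 48 hours, 5 concentrations. Analysis: linear interpolation between bracketing concentrations; unreached endpoints set to highest concentration. At the GI50, growth is halved. TGI marks complete inhibition of growth.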

Test in all cases: growth of human tumour cells (NCI), 48 h
Test [1] relates to A498 renal.
Test [2] relates to CAKI-1 renal.
The test system of test [3] is EKVX NSCLC.
The subject of test [4] is HOP-62 NSCLC.
In test [5] the test system is HOP-92 NSCLC.
The subject of test [6] is MALME-3M melanoma.
Test [7] has as its system NCI-H226 lung.
The test system of test [8] is SW-620 colon.
Test [9] has as its system HS 578T breast.
Test [10] deals with MDA-MB-231 breast.

Take `Cc1ccc(C(=O)C#Cc2c[nH]c(=O)[nH]c2=O)cc1`: the TGI in test [1] amounted to 28 µM; in [2] it was 30.5 µM; in test [3], 31.4 µM; in test [4], 87.7 µM; in [5], 33.3 µM; in [6] it was 18.7 µM. The TGI in test [7] was 34.5 µM; in test [8] it was 20.9 µM.

On to `NCCCNCCSSC/C=C\CSSCCNCCCN`, for which the TGI is > 100 µM in test [1]; > 100 µM in [2]; > 100 µM in test [3]; > 100 µM and 93.4 µM in test [4]; 86.3 µM and 84.5 µM in [5]; > 100 µM in test [6]. Moreover, in test [8], the TGI is > 100 µM. In [4], the GI50 was > 100 µM and 33.2 µM.

As for H-HIIKKIRTWYRKAWHVLGKV-NH2, the GI50 in [2] was 3.32 µM; in test [3] it was 2.37 µM; in test [4] it was 4.59 µM; in test [5], 2.11 µM; in test [9] it was 3.56 µM; in test [6] it was 2.29 µM. The GI50 is 6.47 µM in test [10], 4.15 µM in test [7] and 9.53 µM in [8]. The TGI was 18.3 µM in [2]; 6.73 µM in test [3]; > 100 µM in test [4]; 6.75 µM in test [5]; 18.7 µM in [9]; 5.25 µM in [6]. In addition, the figures for the TGI in [10], in test [7] and in test [8] were 22.3 µM, 39.2 µM and > 100 µM, respectively.

Take `Cc1c(-c2nnc(-c3ccc(F)cc3)o2)nnn1-c1ccnc2c(C(F)(F)F)cccc12`: the GI50 is 29.5 µM in [2]; 31.8 µM in [3]; 24.4 µM in test [4]; 14.7 µM in [5]; 15.5 µM in test [9]; 41.7 µM in [6]. For the same compound, the GI50 in test [10] is 29 µM; in test [7], 67.2 µM; in test [8], 31.9 µM. The TGI in test [2] was > 100 µM; in test [3] it was > 100 µM; in [4] it was 78.4 µM; in test [5], 76.9 µM; in [9], 53.9 µM; in test [6], > 100 µM. Further, the TGI in [10], in [7] and in test [8] was > 100 µM each time.

In the case of `COC1OC(COS(=O)(=O)c2ccc(C)cc2)C(O)C(OS(=O)(=O)c2ccc(C)cc2)C1OS(=O)(=O)c1ccc(C)cc1` (centres undefined), the TGI in test [2], in [3], in test [4], in [6], in test [7] and in test [8] was > 100 µM in each case.

As for `NC(=O)Nc1c([N+](=O)[O-])cc(C(F)(F)F)cc1[N+](=O)[O-]`, the TGI in test [1], in test [2], in test [3], in [4], in [5] and in test [7] was > 100 µM each time. Moreover, the TGI in test [8] is > 100 µM.

`CC1=NC(C(C)C)C(=O)O1` (centres undefined): the TGI in [1], in test [2], in [3], in test [4], in [5] and in test [6] was > 100 µM each time. The values for the TGI in test [7] and in test [8] were > 100 µM and 25.8 µM, respectively.

In the case of `O=C1OC(c2ccccc2)=N/C1=C\c1cc(Cl)ccc1Cl`, the TGI in [1], in test [3], in test [4], in [5], in [6] and in test [8] was > 100 µM in each case.

As for `COc1ccc(CCN2CCC(Nc3nc4ccccc4n3Cc3ccc(F)cc3)CC2)cc1`, the GI50 in test [2] is 1.52 µM; in test [3], 1.79 µM; in test [4], 1.72 µM; in [5], 0.406 µM; in test [6], 1.72 µM; in [10], 1.45 µM. Also, the GI50 is 1.55 µM in test [7] and 1.68 µM in [8]. Moreover, the TGI came out at 3.24 µM in [2]; 5.35 µM in [3]; 3.15 µM in [4]; 2.29 µM in [5]; 3.4 µM in test [6]; 2.88 µM in [10]. In addition, the TGI in test [7] is 3.09 µM; in test [8], 5.14 µM.

`CCCc1nc(NC#N)nc(C(=O)NC23CC4CC(CC(C4)C2)C3)c1C`: the TGI in test [1], in test [2], in test [3], in [4], in test [5] and in test [6] was > 100 µM each time. For the same compound, the TGI in test [7] and in [8] was > 100 µM each time.

For the compound `CCOC(=O)N[C@@H]1C2CC(=O)C(O2)[C@@H]1OC` (some centres undefined), the TGI in [2], in test [3], in test [4], in test [5], in test [6] and in [7] was > 100 µM throughout. For the same compound, in test [8], the TGI was > 100 µM.

For the compound `COc1ccc(C(=O)C(C(=O)C(=O)NC2C3CC4CC(C3)CC2C4)c2ccc(OC)cc2)cc1` (centres undefined), the TGI in test [1], in test [2], in test [3], in test [4], in test [5] and in test [6] was > 100 µM each time. The TGI in test [7] and in [8] was > 100 µM each time.

Turning to `COC(=O)C1=C(c2ccc3c(c2)OCO3)OC(c2ccc3c(c2)OCO3)C1` (centres undefined), the TGI in test [1], in [2], in [3], in test [4], in test [5] and in test [6] was > 100 µM in each case. The TGI in [7] and in test [8] was > 100 µM in each case.

With `CN(C)C1=NC2=S(SC(Nc3ccccc3)=N2)S1` (centres undefined), the TGI is 46.1 µM in test [1]; 60.7 µM in test [2]; 38.5 µM in test [3]; 67.7 µM in test [4]; 59.8 µM in [5]; 46.5 µM in test [6]. The TGI in test [7] and in [8] was > 100 µM throughout.
